In patent publication US7375259B1, “Solanum tuberosum sterol alkaloid glycosyltransferase (SGT) a novel solanidine glucosyltransferase SGT2 and uses thereof” (priority 2005, dated 2008):

How the values were obtained:
[1] = tested on: Colorado potato beetle; conditions: artificial diets; Kowalski et al. 1999; cited from earlier work
[2] = tested on: SGT2; type: biochemical, Solanum tuberosum; conditions: 1,000 μM inhibitor
[3] = tested on: recombinant SGT2; assay: in vitro solanidine glycosyltransferase assay of recombinant SGT2 with Solanaceous aglycones and UDP-[3H]sugar donors; conditions: for SGT2 galactosyltransferase activity with aglycone substrate: UDP-[3H]galactose as sugar donor, activity threshold 2-fold the reaction blank; for SGT2 glucosyltransferase activity with aglycone substrate: UDP-[3H]glucose as sugar donor, 60 min, 37° C., SGAs and UDP-sugars 33 μM

Compound	toxicity to the Colorado potato beetle [1]	inhibition of SGT2 activity [2] [%]	inhibition of SGT2 activity (in words) [2]	SGT2 galactosyltransferase activity with aglycone substrate [3]	SGT2 glucosyltransferase activity with aglycone substrate [3]
C[C@H]1CC[C@@H]2[C@@H](C)[C@H]3[C@H](C[C@H]4[C@@H]5CC=C6C[C@@H](O[C@@H]7O[C@H](CO)[C@H](O)[C@H](O[C@@H]8O[C@H](CO)[C@@H](O)[C@H](O)[C@H]8O)[C@H]7O[C@@H]7O[C@@H](C)[C@H](O)[C@@H](O)[C@H]7O)CC[C@]6(C)[C@H]5CC[C@]34C)N2C1 [α-solanine]	more toxic	39			
C[C@H]1CC[C@@H]2[C@@H](C)[C@H]3[C@H](C[C@H]4[C@@H]5CC=C6C[C@@H](O[C@@H]7O[C@H](CO)[C@H](O[C@@H]8O[C@@H](C)[C@H](O)[C@@H](O)[C@H]8O)[C@H](O)[C@@H]7O[C@@H]7O[C@@H](C)[C@@H](O)[C@@H](O)[C@H]7O)CC[C@]6(C)[C@H]5CC[C@]34C)N2C1 [α-chaconine]			completely inhibited		
C[C@H]1CC[C@@H]2[C@@H](C)[C@H]3[C@H](C[C@H]4[C@@H]5CC=C6C[C@@H](O)CC[C@]6(C)[C@H]5CC[C@]34C)N2C1 [solanidine]				No activity	maximum activity
C[C@H]1CC[C@]2(NC1)O[C@H]1C[C@H]3[C@@H]4CC[C@H]5C[C@@H](O)CC[C@]5(C)[C@H]4CC[C@]3(C)[C@H]1[C@@H]2C [tomatidine]				No activity	readily capable of utilizing UDP-glucose as a substrate
C[C@@H]1CC[C@@]2(NC1)O[C@H]1C[C@H]3[C@@H]4CC=C5C[C@@H](O)CC[C@]5(C)[C@H]4CC[C@]3(C)[C@H]1[C@@H]2C [solasodine]				No activity	readily capable of utilizing UDP-glucose as a substrate
